Test results reported in ChEMBL document CHEMBL3244083, “Fluorinated Pyrimidine nucleosides. 1. Synthesis of a nitrogen analogue of the antitumor agent 2,2'-anhydro-1-beta-D-arabinofuranosyl-5-fluorocytosine hydrochloride” (J Med Chem, 1977).
Active and inactive are the calls of the source. The calls are words filed in the database; no cut-off is given here.

Columns and labels:
CCRF S-180 [1] = assay: Antitumor activity against mouse S180 cells allografted in mouse assessed as tumor growth inhibition at 50 mg/kg, ip qd for 8 days; assay type: functional, organism-based; design: dose 50 mg/kg
[2] = Stability of the compound at pH 7.4; assay type: physicochemical; conditions: buffer
CCRF S-180 [3] = assay: Antitumor activity against mouse S180 cells allografted in mouse assessed as tumor growth inhibition at 100 mg/kg, ip qd for 8 days; assay type: functional, organism-based; design: dose 100 mg/kg
CCRF S-180 [4] = assay: Antitumor activity against mouse S180 cells allografted in mouse assessed as tumor growth inhibition at 1 to 5 mg/kg, ip qd for 8 days; assay type: functional, organism-based
CCRF S-180 [5] = assay: Antitumor activity against mouse S180 cells allografted in mouse assessed as tumor growth inhibition at 5 mg/kg, ip qd for 8 days; assay type: functional, organism-based; design: dose 5 mg/kg

With O=c1nc2n(cc1F)[C@@H]1O[C@H](CO)[C@@H](O)[C@@H]1N2 the TGI (CCRF S-180 [1]) was “inactive” and the Stability [2] was “Stable”.
For Nc1nc2[n+](cc1F)[C@@H]1O[C@H](CO)[C@@H](O)[C@@H]1N2.[Cl-], the TGI (CCRF S-180 [3]) was “inactive” and the Stability [2] was “Stable”.
For Nc1nc(N)[n+]([C@@H]2O[C@H](CO)[C@@H](O)[C@H]2O)cc1F, the TGI (CCRF S-180 [1]) was “inactive”.
With Nc1nc(=O)c(F)cn1[C@@H]1O[C@H](CO)[C@@H](O)[C@H]1O the TGI (CCRF S-180 [1]) was “inactive”.
With O=c1[nH]c(=O)n([C@@H]2O[C@H](CI)[C@@H](O)[C@H]2O)cc1F the TGI (CCRF S-180 [1]) was “inactive”.
For Nc1nc(=O)n([C@@H]2O[C@H](CO)[C@@H](O)[C@H]2O)cc1F, the TGI (CCRF S-180 [4]) was “Active”.
In the case of O=c1[nH]c(=O)n([C@@H]2O[C@H](CO)[C@@H](O)[C@H]2O)cc1F, the TGI (CCRF S-180 [5]) is reported as “Active”.
